Experimental data taken from patent US10751301B2, “Methods for inhibiting conversion of choline to trimethylamine (TMA)” (The Procter & Gamble Company, priority 2017, dated 2020).
Like-named read-outs stand apart in the source and are kept apart here.

Legend:
[1] = molecular target: recombinant D. alaskensis Cut C/D lysate (Oleidesulfovibrio alaskensis, UniProt Q30W70); assay: biochemical
[2] = test system: whole cell wild-type P. mirabilis; assay: Inhibition of conversion of choline to TMA by whole cell wild-type P. mirabilis (Example 5); type: cell-based
[3] = molecular target: recombinant P. mirabilis Cut C/D lysate (Proteus mirabilis, UniProt B4EYG1); assay: biochemical
[4] = test system: C57b1/6 female mice; assay: Rapid preclinical method, d9-choline challenge in mice (Example 6); type: in vivo; settings: for Calculated EC50 (mg/kg) compared to Vehicle Control: mice, oral gavage with 2 mg d9-Choline, Time 3 hr
[5] = test system: human fecal polymicrobial community; assay: Human fecal polymicrobial incubation with d9-choline, TMA inhibition (Example 3); type: cell-based
[6] = test system: mice (C57b1/6); assay: Preclinical screening method, plasma TMAO in mice on 1% choline added diet (Example 4); type: in vivo; settings: oral gavage once daily, 310 mg/kg/day
[7] = test system: Proteus mirabilis 29906 (Pm) lysate; assay: Inhibition of formation of TMA from choline in Proteus mirabilis lysate (Example 2); type: biochemical; settings: read-out: TMA Inhibition (IC50, mol/L)
[8] = test system: fecal polymicrobial community; settings: male, human
[9] = Proteus mirabilis; read-out: EC50 (mol/L) whole cell wild-type P. mirabilis
[10] = Homo sapiens, 0.2% fecal slurry, 50 μM d9-choline chloride, 20 hours, 37° C., anaerobic, ND=not detectable, read-out: Example 3, TMA Inhibition (IC50, mol/L)
[11] = Pm lysate 1.5 mg/mL protein, 50 μM d9-choline chloride, 37° C. two hours

Sequence of recombinant D. alaskensis Cut C/D lysate (Q30W70 whole entry): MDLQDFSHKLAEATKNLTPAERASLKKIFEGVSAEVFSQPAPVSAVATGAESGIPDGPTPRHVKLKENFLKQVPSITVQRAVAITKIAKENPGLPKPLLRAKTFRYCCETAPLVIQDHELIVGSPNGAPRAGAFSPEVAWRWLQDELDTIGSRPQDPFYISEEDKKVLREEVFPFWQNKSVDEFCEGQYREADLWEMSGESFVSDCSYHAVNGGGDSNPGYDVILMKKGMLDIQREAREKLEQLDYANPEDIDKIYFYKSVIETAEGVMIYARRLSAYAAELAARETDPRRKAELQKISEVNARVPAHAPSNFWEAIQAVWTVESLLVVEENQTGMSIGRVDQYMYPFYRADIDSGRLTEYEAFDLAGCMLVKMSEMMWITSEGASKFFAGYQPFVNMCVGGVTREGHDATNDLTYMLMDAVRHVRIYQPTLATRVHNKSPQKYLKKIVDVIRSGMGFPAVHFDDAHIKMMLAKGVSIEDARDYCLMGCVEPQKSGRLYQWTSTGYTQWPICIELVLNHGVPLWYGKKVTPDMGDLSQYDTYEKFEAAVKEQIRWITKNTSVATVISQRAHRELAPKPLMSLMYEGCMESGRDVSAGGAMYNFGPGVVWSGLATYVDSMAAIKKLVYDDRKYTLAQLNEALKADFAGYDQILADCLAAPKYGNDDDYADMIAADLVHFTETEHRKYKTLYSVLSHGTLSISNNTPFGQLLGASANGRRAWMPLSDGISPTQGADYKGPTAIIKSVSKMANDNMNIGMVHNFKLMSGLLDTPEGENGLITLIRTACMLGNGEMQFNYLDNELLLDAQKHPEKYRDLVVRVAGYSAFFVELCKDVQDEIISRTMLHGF

C=C(C)C[S+](C)CCO (stereo not shown) [ID 9, 2-hydroxyethyl-methyl-(2-methylallyl)sulfonium]
IC50 [1]: 650 nM
EC50 [2, 9]: 23000 nM
IC50 [3]: 5900 nM

CC[S+](C)CCO.[I-] (stereo not shown) [Methylethylthioethanol iodide]
EC50, inhibits the conversion of choline to TMA, assay of EXAMPLE 6 ([4]; time not given): 0.8 mg/kg
IC50 ([5]; Homo sapiens, read-out: IC50, inhibits the conversion of choline to TMA, assay of Example 3): 8.89 µM

C/C=C/C[S+](C)CCO (stereo not shown) [ID 8, [(E)-but-2-enyl]-(2-hydroxyethyl)-methyl-sulfonium]
IC50 [1]: 270 nM
EC50 [2, 9]: 9500 nM
Remaining plasma TMAO as a percentage of plasma TMAO in same day vehicle control (% of control remaining) ([6]; Days 1): 62%
IC50 [3]: 1500 nM

[O-][S+]1CCOCC1 [compound 19, 4-oxido-1,4-oxathian-4-ium]
IC50 ([5]; read-out: Example 3, TMA Inhibition (IC50, mol/L)): 24.3 µM
IC50 [7]: 234 µM

C=CC[S+](C)C [compound 21]
IC50 [5, 10]: 1.46 µM
IC50 [7, 11]: 0.0661 µM

C[S+](CCO)CC(=O)O (stereo not shown) [ID 15, 2-Acetic acid-(2-hydroxyethyl)-methyl-sulfonium]
IC50 ([1]; read-out: IC50 (mol/L) recombinant D. alaskensis Cut C/D lysate): 45 nM
EC50 ([2]; read-out: EC50 (mol/L) whole cell wild-type P. mirabilis): 62 nM
Remaining plasma TMAO as a percentage of plasma TMAO in same day vehicle control (% of control remaining) ([6]; Days 5): 69%
IC50 ([3]; read-out: IC50 (mol/L) recombinant P. mirabilis Cut C/D lysate): 430 nM

C#CC[S+](C)C [compound 20]
IC50 [5, 10]: 0.108 µM
IC50 [7, 11]: 0.01 µM

C#CC[S+]1CCOCC1 [compound 24, 4-prop-2-ynyl-1,4-oxathian-4-ium]
IC50 [7, 11]: 55 µM

C#CC[S+](C)C [ID 20, Dimethyl(prop-2-ynyl)sulfonium]
IC50 [1]: 68 nM
EC50 [2, 9]: 75000 nM
Calculated EC50 (mg/kg) compared to Vehicle Control [4]: 9.00 mg/kg
Remaining plasma TMAO as a percentage of plasma TMAO in same day vehicle control (% of control remaining) ([6]; Days 1): 0.35%
IC50 [3]: 13 nM

C#CC[S+](C)CCO (stereo not shown) [ID 2, Propargyl-(2-hydroxyethyl)-methyl-sulfonium]
IC50 [1]: 65 nM
EC50 [2, 9]: 930 nM
Calculated EC50 (mg/kg) compared to Vehicle Control [4]: 85.50 mg/kg
IC50 [3]: 47 nM

[O-][S+](CCO)c1ccccc1 (stereo not shown) [compound 18, 2-hydroxyethyl-oxido-phenyl-sulfonium]
IC50 [5, 10]: 22 µM
IC50 [7, 11]: 129 µM

C=CC[S+](C)C [ID 21, Allyl(dimethyl)sulfonium]
IC50 [1]: 410 nM
EC50 [2, 9]: 160 nM
Calculated EC50 (mg/kg) compared to Vehicle Control [4]: 0.19 mg/kg
IC50 [3]: 250 nM

C=CC[S+]1CCOCC1 [compound 7, 4-allyl-1,4-oxathian-4-ium]
IC50 [7, 11]: 15.8 µM

C=CC[S+](C)CCO (stereo not shown) [ID 1, Allyl-(2-hydroxyethyl)-methyl-sulfonium]
IC50 [1]: 307 nM
EC50 [2, 9]: 73 nM
Calculated EC50 (mg/kg) compared to Vehicle Control [4]: 0.87 mg/kg
Remaining plasma TMAO as a percentage of plasma TMAO in same day vehicle control (% of control remaining) ([6]; Days 1): 18%
IC50 [3]: 98.2 nM

C/C=C/C[S+](C)CCO (stereo not shown) [compound 8, [(E)-but-2-enyl]-(2-hydroxyethyl)-methyl-sulfonium]
IC50 [7, 11]: 0.0151 µM

C[S+](CCO)Cc1ccccc1 (stereo not shown) [compound 13]
IC50 [5, 10]: 12.7 µM
IC50 [7, 11]: 44.7 µM

CCCC[S+](C)CCO (stereo not shown) [compound 14, Butyl-(2-hydroxyethyl)-methyl-sulfonium]
IC50 [5, 10]: 0.557 µM
IC50 [7, 11]: 29.5 µM

CCCCCC[S+](C)CCO (stereo not shown) [compound 4, Hexyl-(2-hydroxyethyl)-methyl-sulfonium]
IC50 [5, 10]: 612 µM
IC50 [7, 11]: 58.9 µM

CCCCC[S+](C)CCO (stereo not shown) [compound 3, Pentyl-(2-hydroxyethyl)-methyl-sulfonium]
IC50 [5, 10]: 51.3 µM
IC50 [7, 11]: 398 µM

OCC[S+]1CCOCC1 [compound 23, 2-(1,4-oxathian-4-ium-4-yl)ethanol]
IC50 [7]: 10.7 µM

C=CC[S+]([O-])CCO (stereo not shown) [compound 22, Allyl-(2-hydroxyethyl)-oxido-sulfonium]
IC50 [5, 10]: 101 µM
IC50 [7, 11]: 3.8 µM

C#CC[S+](C)CCO (stereo not shown) [compound 2, Propargyl-(2-hydroxyethyl)-methyl-sulfonium]
IC50 [5, 10]: 2.98 µM
IC50 [7, 11]: 0.038 µM

C[S+](CI)CCO (stereo not shown) [compound 6]
IC50 [7]: 2.04 µM
Lowest concentration tested at which cell viability was 10% or lower [8]: 250 µM

C#CC[S+](CCO)c1ccccc1 (stereo not shown) [compound 5, (2-hydroxyethyl)(phenyl)(prop-2-yn-1-yl)sulfonium]
IC50 [7, 11]: 200 µM

C[S+](CCO)c1ccccc1 (stereo not shown) [compound 16, Phenyl-(2-hydroxyethyl)-methyl-sulfonium]
IC50 [5, 10]: 1.64 µM
IC50 [7, 11]: 302 µM

C[S+](CCO)CCBr (stereo not shown) [compound 11, (2-bromoethyl)(2-hydroxyethyl)methylsulfonium]
IC50 ([5]; Homo sapiens, 20 h, read-out: Example 3, TMA Inhibition (IC50, mol/L)): 3.05 µM
IC50 [7]: 0.219 µM

C[S+](C/C=C/Br)CCO (stereo not shown) [compound 10, [(E)-3-bromoallyl]-(2-hydroxyethyl)-methyl-sulfonium]
IC50 [7, 11]: 0.251 µM

CC[S+](CCO)c1ccccc1 (stereo not shown) [compound 17, Phenyl-(2-hydroxyethyl)-ethyl-sulfonium]
IC50 [5, 10]: 760 µM
IC50 [7, 11]: 190 µM

C[S+](CI)CCO (stereo not shown) [ID 6, Iodomethyl-(2-hydroxyethyl)-methyl-sulfonium]
IC50 [1]: 3700 nM
EC50 ([2]; Proteus mirabilis, read-out: EC50 (mol/L) whole cell wild-type P. mirabilis): 200 nM
Calculated EC50 (mg/kg) compared to Vehicle Control [4]: 1.10 mg/kg
Remaining plasma TMAO as a percentage of plasma TMAO in same day vehicle control (% of control remaining) ([6]; Days 1): 3%
IC50 [3]: 360 nM

C=CC[S+](C)CCO (stereo not shown) [compound 1, Allyl-(2-hydroxyethyl)-methyl-sulfonium]
IC50 [5, 10]: 41.7 µM
IC50 [7, 11]: 0.0457 µM

C=C(C)C[S+](C)CCO (stereo not shown) [compound 9, 2-hydroxyethyl-methyl-(2-methylallyl)sulfonium]
IC50 [7, 11]: 166 µM
